The source of these data is patent US20240124478A1, “SPIROCYCLIC-SUBSTITUTED 6,7-DIHYDRO-PYRANO[2,3-d]PYRIMIDINE INHIBITORS OF KRAS G12C MUTANT” (Merck Sharp & Dohme LLC, priority 2020, published 2024).

The test system of one experiment is NCI-H358 cells. Description: Cellular phospho-ERK assay. It is filed as cell-based. The conditions noted are these: 2 hour incubation, ratio of p-Erk vs total Erk, read-out: IC50 (nM) pERK (Cell). How it is done: NCI-H358 cells (ATCC® CRL-5807™) were cultured in T150 flask in growth medium (RPMI medium 1640-(ThermoFisher Scientific 61870) containing 10% fetal bovine serum (ThermoFisher Scientific 10091148)). The cells were harvested in growth medium after TrypLE (ThermoFisher scientific 12604021) digestion and were seeded in 384-well collagen coated cell culture plate (Corning 356702) at a density of 15,000 cells/well, and incubated at 37° C., 5% CO2 overnight. The compound dose-response titrations were prepared and appropriate amounts of compounds were dispensed in a 384-well intermediate plate using an Echo 550 liquid handler. RPMI medium 1640-GlutaMAX™-I were added to the intermediate plate and transferred to 384-well cell culture plate, which was incubated at 37° C., 5% CO2 for 2 hours. After removal of medium from the plate, cells were lysed in lysis buffer from SureFire® Ultra™ Multiplex p-Erk and total Erk assay kit (PerkinElmer MPSU-PTERK) containing Halt™ Protease and Phosphotase inhibitor cocktail (ThermoFisher Scientific 78446) at room temperature with constant shaking at 300 rpm for 30 minutes. The cell lysates were then transferred to OptiPlate-384 plate (PerkinElmer 6005620) and the phosphorylation of Erk and total Erk levels were detected by Alpha SureFire Ultra Multiplex p-Erk kit PerkinElmer MPSU-PTERK) following the manufacturer's protocol. Assay plates were read on an EnVision Multimode Plate Reader (PerkinElmer), and the ratio of p-Erk vs total Erk in each well was used as the final readout. Dose response curves were analyzed using a 4-parameter logistic model to calculate IC50 values using spotfire software.

In experiment [1] the target is recombinant biotinylated KRAS protein containing G12C/C51S/C80L/C118S mutations (Biotinylated KRAS G12C protein) (Homo sapiens (Human), UniProt P01116, C118S/C51S/C80L/G12C). Description: SOS-catalyzed nucleotide exchange assay (TR-FRET). The conditions noted are these: apparent potency; preincubation time of 60 minutes prior to addition of SOS. The experiment is classed as biochemical. How it is done:
The SOS-catalyzed nucleotide exchange assay utilizes a preformed complex of recombinant biotinylated KRAS protein containing G12C/C51S/C80L/C118S mutations (183 amino acids; biotin on K10; leader sequence which is an AviTag; referred to as SEQ ID NO: 1 or “Biotinylated KRAS G12C protein” hereafter), Bodipy-GDP, and Terbium-streptavidin. Compounds are added to this complex and then after 60 minutes incubation time, the mixture is treated with recombinant SOS protein and unlabeled GTP. Small molecule inhibitors stabilize the Bodipy-GDP complex whereas the untreated protein rapidly exchanges Bodipy-GDP for unlabeled GTP resulting in reduced TR-FRET signal.
Biotinylated KRAS G12C protein (SEQ ID NO: 1) is diluted to 2 μM in an EDTA buffer (20 mM HEPES, 150 mM sodium chloride, 10 mM EDTA, and 0.01% Tween) and incubated at room temperature for one hour. This mixture is then further diluted to 90 nM in an assay buffer (20 mM HEPES, 150 mM sodium chloride, 10 mM magnesium chloride, and 0.005% Tween) containing 15 nM of Terbium-Streptavidin (Invitrogen, catalog #PV3577) and 900 nM of Bodipy-GDP and incubated at room temperature for six hours. This solution is referred to as Biotinylated KRAS G12C mixture.
Each test compound (10 mM stock in DMSO) is diluted in DMSO to make a 10-point, 3-fold dilution series in a 384-well low dead volume microplate (Labcyte, catalog #LP-0200). Once titrations are made, 10 nL of the diluted compounds is acoustically dispensed into a 384-well plate (Corning, catalog #3820) using an Echo 550 (Labcyte).
Each well of the plate receives 3 μL Biotinylated KRAS G12C mixture that had been incubating for six hours and 3 μL of assay buffer using a BioRAPTR (Beckman Coulter) and is incubated at room temperature for 60 minutes. Each well then receives 3 μL of 240 nM recombinant human SOS protein and 9 mM GTP (Sigma, G8877) in assay buffer and is incubated at room temperature for 60 minutes.
The time-resolved fluorescence resonance energy transfer signal of the plate is measured on an Envision (PerkinElmer) plate reader: Excitation filter=340 nm; emission1=495 nm; emission2=520 nm; dichroic mirror=D400/D505; delay time=100 μs. The signal of each well is determined as the ratio of the emission at 520 nm to that at 495 nm. Percent effect of each well is determined after normalization to control wells containing DMSO (no effect) or a saturating concentration of inhibitor (max effect). The apparent effect as a function of compound concentration is fit to a four parameter logistic equation.
A general note: TR-FRET usually uses a lanthanide donor and a delayed reading to cut background.

Molecules are shown by their SMILES. Where two headings read alike, the source gives them in different places. Bounds are passed on as bounds.

recombinant biotinylated KRAS protein containing G12C/C51S/C80L/C118S mutations (Biotinylated KRAS G12C protein), sequence (P01116 other isoform, or with tags, fused parts or gaps, stated change not applied): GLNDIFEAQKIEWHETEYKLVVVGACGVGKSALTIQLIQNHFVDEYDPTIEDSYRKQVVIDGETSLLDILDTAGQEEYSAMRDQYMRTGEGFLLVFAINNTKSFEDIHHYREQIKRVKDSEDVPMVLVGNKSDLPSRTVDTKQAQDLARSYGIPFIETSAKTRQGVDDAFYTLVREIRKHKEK

For `C=CC(=O)N1CCN(c2nc(OC[C@@H]3CCCN3CC)nc3c2CCC2(CCCc4ccccc42)O3)C[C@@H]1CC#N` (single isomer, unassigned) [Example 15b], the IC50 with NCI-H358 cells stood at 1810 nM; in experiment [1], 84 nM.
For `C=CC(=O)N1CCN(c2nc(OC[C@@H]3CC(F)(F)CN3C)nc3c2CCC2(CCCc4ccccc42)O3)C[C@@H]1CC#N` (single isomer, unassigned) [Example 16a], the values for the IC50 (in the experiment with NCI-H358 cells; in experiment [1]) were 246 nM and 18.9 nM, respectively.
With `C=CC(=O)N1CCN(c2nc(OC[C@@H]3CC(F)(F)CN3C)nc3c2CCC2(CCCc4ccccc42)O3)C[C@@H]1CC#N` (single isomer, unassigned) [Example 16b], the IC50 with NCI-H358 cells amounted to 1650 nM; in experiment [1], 109 nM.
Turning to `C=C(F)C(=O)N1CCN(c2nc(OC[C@@H]3CCCN3C)nc3c2CCC2(CCCc4ccccc42)O3)C[C@@H]1CC#N` (single isomer, unassigned) [Example 17a], the IC50 came to 6680 nM with NCI-H358 cells (Homo sapiens, NCI-H358, 2 h) and 823 nM in experiment [1].
As for `C=CC(=O)N1CCN(c2nc(C(N)=O)nc3c2CCC2(CCCc4ccccc42)O3)C[C@@H]1CC#N` (single isomer, unassigned) [Example 18b], the IC50 in the experiment on NCI-H358 cells (Homo sapiens, NCI-H358, 2 h) is 1520 nM; in experiment [1], 268 nM.
Turning to `C=CC(=O)N1CCN(c2nc(C(=O)N[C@H](C)CN(C)C)nc3c2CCC2(CCCc4cccc(C)c42)O3)CC1` (single isomer, unassigned) [Example 19a], the IC50 in the experiment with NCI-H358 cells (Homo sapiens, NCI-H358, 2 h) was 30000 nM; in experiment [1] it was 8470 nM.
For `C=CC(=O)N1CCN(c2nc(N3CC(N(C)C)C3)nc3c2CCC2(CCCc4ccccc42)O3)C[C@@H]1CC#N` (single isomer, unassigned) [Example 20a], in that order: 1470 nM and 41.8 nM.
For the compound `C=CC(=O)N1CCN(c2nc(N3CC(N(C)C)C3)nc3c2CCC2(CCCc4ccccc42)O3)C[C@@H]1CC#N` (single isomer, unassigned) [Example 20b], the figures for the concentration for half-maximal inhibition (IC50) (with NCI-H358 cells; in experiment [1]) were 2760 nM and 80.4 nM, respectively.
`C=CC(=O)N1CCN(c2nc(OC[C@@H]3CCCN3C)nc3c2CCC2(CCCc4ccccc42)O3)CC1` (single isomer, unassigned) [Example 21a]: the IC50 in the experiment on NCI-H358 cells (Homo sapiens, NCI-H358, 2 h) was 10200 nM; in experiment [1], 5340 nM.
For `C=CC(=O)N1CCN(c2nc(OC[C@@H]3CCCN3C)nc3c2CCC2(CCc4ccccc42)O3)CC1` (single isomer, unassigned) [Example 22a], in that order: 24600 nM and 6320 nM.
With `C=CC(=O)N1CCN(c2nc(OC[C@@H]3CCCN3C)nc3c2CCC2(CCCc4cccc(Cl)c42)O3)CC1` (single isomer, unassigned) [Example 23a], the IC50 was 26500 nM in the experiment on NCI-H358 cells (Homo sapiens, NCI-H358, 2 h) and 5070 nM in experiment [1].
With `C=CC(=O)N1CCN(c2nc(OC[C@@H]3CCCN3C)nc3c2CCC2(CCCc4cccc(C)c42)O3)CC1` (single isomer, unassigned) [Example 24a], the IC50 was 12900 nM with NCI-H358 cells (Homo sapiens, NCI-H358, 2 h) and 2390 nM in experiment [1].
Take `C=CC(=O)N1CCN(c2nc(OC[C@@H]3CCCN3C)nc3c2CCC2(CC(C)c4ccccc42)O3)C[C@@H]1CC#N` (single isomer, unassigned) [Example 25a]: the IC50 in the experiment on NCI-H358 cells was 1100 nM; in experiment [1], 14.2 nM.
As for `C=CC(=O)N1CCN(c2nc(OC[C@@H]3CCCN3C)nc3c2CCC2(CC(C)c4ccccc42)O3)C[C@@H]1CC#N` (single isomer, unassigned) [Example 25b], the IC50 with NCI-H358 cells was 2740 nM; in experiment [1], 11.6 nM.
With `C=CC(=O)N1CCN(c2nc(OC[C@@H]3CCCN3C)nc3c2CCC2(CC(C)c4ccccc42)O3)C[C@@H]1CC#N` (single isomer, unassigned) [Example 25c], the IC50 stood at 11000 nM with NCI-H358 cells and 253 nM in experiment [1].
For `C=CC(=O)N1CCN(c2nc(OC[C@@H]3CCCN3C)nc3c2CCC2(CC(C)c4ccccc42)O3)C[C@@H]1CC#N` (single isomer, unassigned) [Example 25d], in that order: 8130 nM and 113 nM.
With `C=CC(=O)N1CCN(c2nc(OC[C@@H]3CCCN3C)nc3c2CCC2(O3)c3ccccc3CC2(C)C)C[C@@H]1CC#N` (single isomer, unassigned) [Example 27a], the IC50 with NCI-H358 cells (Homo sapiens, NCI-H358, 2 h) amounted to 30000 nM; in experiment [1], 1080 nM.
For `C=CC(=O)N1CCN(c2nc(OC[C@@H]3CCCN3C)nc3c2CCC2(O3)c3ccccc3CC2(C)C)C[C@@H]1CC#N` (single isomer, unassigned) [Example 27b], the figures for the IC50 (in the experiment on NCI-H358 cells; in experiment [1]) were 28600 nM and 4490 nM, respectively.
Turning to `C=CC(=O)N1CCN(c2nc(OC[C@@H]3CCCN3C)nc3c2CCC2(CCc4c2ccc2[nH]ncc42)O3)C[C@@H]1CC#N` (single isomer, unassigned) [Example 28a], the IC50 is > 30000 nM in the experiment on NCI-H358 cells (Homo sapiens, NCI-H358, 2 h) and 7840 nM in experiment [1].
In the case of `C=CC(=O)N1CCN(c2nc(OC[C@@H]3CCCN3C)nc3c2CCC2(CCc4c2ccc2[nH]ncc42)O3)C[C@@H]1CC#N` (single isomer, unassigned) [Example 28b], the IC50 in the experiment on NCI-H358 cells came out at 29400 nM; in experiment [1] it was 2330 nM.
As for `C=CC(=O)N1CCN(c2nc(OC[C@@H]3CCCN3C)nc3c2CCC2(CCCc4ccccc42)O3)[C@@H](C)C1` (stereo partly drawn) [Example 13a, 1-((3S)-3-methyl-4-(2′-(((S)-1-methylpyrrolidin-2-yl)methoxy)-3,4,5′,6′-tetrahydro-2H-spiro[naphthalene-1,7′-pyrano[2,3-d]pyrimidin]-4′-yl)piperazin-1-yl)prop-2-en-1-one], the IC50 was found to be 4980 nM in the experiment with NCI-H358 cells (Homo sapiens, NCI-H358, 2 h) and 576 nM in experiment [1].
`C=CC(=O)N1CCN(c2nc(OC[C@@H]3CCCN3C)nc3c2CCC2(CCCc4ccccc42)O3)C[C@H]1C` (stereo partly drawn) [Example 14a, 1-((2R)-2-methyl-4-(2′-(((S)-1-methylpyrrolidin-2-yl)methoxy)-3,4,5′,6′-tetrahydro-2H-spiro[naphthalene-1,7′-pyrano[2,3-d]pyrimidin]-4′-yl)piperazin-1-yl)prop-2-en-1-one]: the 50% inhibitory concentration (IC50) in the experiment on NCI-H358 cells (Homo sapiens, NCI-H358, 2 h) worked out at 4200 nM; in experiment [1], 2080 nM.
Regarding `C=CC(=O)N1CCN(c2nc(OC[C@@H]3CCCN3C)nc3c2CCC2(Cc4ccccc4C2)O3)C[C@@H]1CC#N` [Example 29, 2-((S)-1-acryloyl-4-(2′-(((S)-1-methylpyrrolidin-2-yl)methoxy)-1,3,5′,6′-tetrahydrospiro[indene-2,7′-pyrano[2,3-d]pyrimidin]-4′-yl)piperazin-2-yl)acetonitrile], the IC50 in the experiment with NCI-H358 cells (Homo sapiens, NCI-H358, 2 h) was found to be 19200 nM; in experiment [1], 5010 nM.
As to `C=CC(=O)N1CCN(c2nc(OC[C@@H]3CCCN3C)nc3c2CCC2(O3)c3ccccc3-c3ccccc32)C[C@@H]1CC#N` [Example 30, 2-((S)-1-acryloyl-4-(2′-(((S)-1-methylpyrrolidin-2-yl)methoxy)-5′,6′-dihydrospiro[fluorene-9,7′-pyrano[2,3-d]pyrimidin]-4′-yl)piperazin-2-yl)acetonitrile], the IC50 came to 1290 nM in the experiment with NCI-H358 cells (Homo sapiens, NCI-H358, 2 h) and 68.6 nM in experiment [1].

Broadly, the IC50 is the concentration at which inhibition is half-maximal.
